Measured values from the kinase profiling compilation of Christmann-Franck et al. (2016).

What was measured:
Experiment in all cases: KINOMEscan competition binding
Details in all cases: compound 1.0 µM
STK38L (human) = STK38L (human) (UniProt Q9Y2H1)
[1] = test system: PIK3CA (human), P42336 [H1047L]
TEC (human) = TEC (human) (UniProt P42680)
MAP3K12 (human) = MAP3K12 (human) (UniProt Q12852)
AXL (human) = AXL (human) (UniProt P30530)
ADCK4 (human) = ADCK4 (human) (UniProt Q96D53)
EPHA1 (human) = EPHA1 (human) (UniProt P21709)
AAK1 (human) = AAK1 (human) (UniProt Q2M2I8)
MAP3K11 (human) = MAP3K11 (human) (UniProt Q16584)
[2] = molecular target: TYK2 JH2 pseudokinase (human) (UniProt P29597)
[3] = test system: FLT3 (human), P36888 [ITD]
ULK2 (human) = ULK2 (human) (UniProt Q8IYT8)
FGFR4 (human) = FGFR4 (human) (UniProt P22455)
FGFR4 (human), sequence (P22455 whole entry, looked up): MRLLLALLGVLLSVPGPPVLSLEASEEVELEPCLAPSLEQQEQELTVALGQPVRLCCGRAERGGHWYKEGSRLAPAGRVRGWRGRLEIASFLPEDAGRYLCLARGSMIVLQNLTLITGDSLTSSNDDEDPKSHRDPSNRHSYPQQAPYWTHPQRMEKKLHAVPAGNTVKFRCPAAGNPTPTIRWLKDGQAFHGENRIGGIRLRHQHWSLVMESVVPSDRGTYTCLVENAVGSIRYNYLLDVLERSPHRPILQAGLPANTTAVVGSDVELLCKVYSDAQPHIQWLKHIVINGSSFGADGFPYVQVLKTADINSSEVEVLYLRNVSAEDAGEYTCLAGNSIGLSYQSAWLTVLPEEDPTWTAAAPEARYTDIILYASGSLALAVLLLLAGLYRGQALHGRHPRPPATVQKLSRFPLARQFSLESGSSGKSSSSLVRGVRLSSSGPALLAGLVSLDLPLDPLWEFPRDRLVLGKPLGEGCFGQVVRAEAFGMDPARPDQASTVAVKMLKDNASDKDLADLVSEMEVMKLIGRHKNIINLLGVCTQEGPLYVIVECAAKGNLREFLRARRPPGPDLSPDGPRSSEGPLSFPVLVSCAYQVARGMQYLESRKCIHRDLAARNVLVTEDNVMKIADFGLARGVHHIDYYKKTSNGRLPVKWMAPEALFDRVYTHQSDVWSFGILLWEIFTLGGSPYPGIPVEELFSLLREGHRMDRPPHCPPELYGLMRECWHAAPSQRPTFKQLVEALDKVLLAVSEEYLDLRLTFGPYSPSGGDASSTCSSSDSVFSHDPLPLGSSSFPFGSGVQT

MAP2K5 (human) = MAP2K5 (human) (UniProt Q13163)
CSNK1G3 (human) = CSNK1G3 (human) (UniProt Q9Y6M4)
CSNK1G3 (human), sequence (Q9Y6M4 whole entry, looked up): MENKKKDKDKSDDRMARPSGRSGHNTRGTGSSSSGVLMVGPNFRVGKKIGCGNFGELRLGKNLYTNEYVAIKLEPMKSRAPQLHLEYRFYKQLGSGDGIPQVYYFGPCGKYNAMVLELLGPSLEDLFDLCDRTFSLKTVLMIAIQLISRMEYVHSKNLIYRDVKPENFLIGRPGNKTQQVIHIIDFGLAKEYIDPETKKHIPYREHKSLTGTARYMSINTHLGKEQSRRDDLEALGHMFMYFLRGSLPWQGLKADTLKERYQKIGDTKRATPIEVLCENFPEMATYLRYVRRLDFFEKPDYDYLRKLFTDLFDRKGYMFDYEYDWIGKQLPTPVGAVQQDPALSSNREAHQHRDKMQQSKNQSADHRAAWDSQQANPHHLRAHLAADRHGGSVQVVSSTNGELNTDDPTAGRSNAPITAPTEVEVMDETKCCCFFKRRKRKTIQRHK

MAP3K10 (human) = MAP3K10 (human) (UniProt Q02779)
STK17B (human) = STK17B (human) (UniProt O94768)
[4] = test system: EGFR (human), P00533 [747-751 del / S ins]
GRK7 (human) = GRK7 (human) (UniProt Q8WTQ7)
HIPK1 (human) = HIPK1 (human) (UniProt Q86Z02)
RPS6KA6 KD2 (human) = RPS6KA6 KD2 (human) (UniProt Q9UK32)
MARK2 (human) = MARK2 (human) (UniProt Q7KZI7)
YSK4 (human) = YSK4 (human) (UniProt Q56UN5)
MLTK (human) = MLTK (human) (UniProt Q9NYL2)
BMPR1A (human) = BMPR1A (human) (UniProt P36894)
LIMK2 (human) = LIMK2 (human) (UniProt P53671)
[5] = test system: EGFR (human), P00533 [G719C]
NIM1 (human) = NIM1 (human) (UniProt Q8IY84)
NTRK3 (human) = NTRK3 (human) (UniProt Q16288)
FLT4 (human) = FLT4 (human) (UniProt P35916)
SRPK2 (human) = SRPK2 (human) (UniProt P78362)
STK24 (human) = STK24 (human) (UniProt Q9Y6E0)
GSK3B (human) = GSK3B (human) (UniProt P49841)
IRAK1 (human) = IRAK1 (human) (UniProt P51617)
IRAK1 (human), sequence (P51617 whole entry, looked up): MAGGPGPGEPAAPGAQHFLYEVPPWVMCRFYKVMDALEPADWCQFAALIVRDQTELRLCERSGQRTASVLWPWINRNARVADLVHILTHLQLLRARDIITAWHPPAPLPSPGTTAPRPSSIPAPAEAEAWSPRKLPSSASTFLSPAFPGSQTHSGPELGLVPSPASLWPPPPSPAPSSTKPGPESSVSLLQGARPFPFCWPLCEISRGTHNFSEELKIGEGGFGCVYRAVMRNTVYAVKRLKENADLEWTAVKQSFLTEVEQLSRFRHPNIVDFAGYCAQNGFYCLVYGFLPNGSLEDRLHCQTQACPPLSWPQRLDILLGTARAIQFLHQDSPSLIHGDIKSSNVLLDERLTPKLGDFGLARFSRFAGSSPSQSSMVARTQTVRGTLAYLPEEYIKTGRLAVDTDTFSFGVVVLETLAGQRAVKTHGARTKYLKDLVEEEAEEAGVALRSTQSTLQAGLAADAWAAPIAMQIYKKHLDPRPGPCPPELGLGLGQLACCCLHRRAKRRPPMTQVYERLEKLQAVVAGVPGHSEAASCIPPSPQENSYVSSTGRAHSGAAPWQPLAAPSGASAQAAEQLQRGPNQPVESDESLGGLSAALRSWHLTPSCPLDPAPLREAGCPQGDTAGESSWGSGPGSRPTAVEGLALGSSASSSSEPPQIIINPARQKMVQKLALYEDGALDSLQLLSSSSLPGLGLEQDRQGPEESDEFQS

[6] = test system: EGFR (human), P00533 [752-759 del]
CDK11B (human) = CDK11B (human) (UniProt P21127)
CDK11B (human), sequence (P21127 whole entry, looked up): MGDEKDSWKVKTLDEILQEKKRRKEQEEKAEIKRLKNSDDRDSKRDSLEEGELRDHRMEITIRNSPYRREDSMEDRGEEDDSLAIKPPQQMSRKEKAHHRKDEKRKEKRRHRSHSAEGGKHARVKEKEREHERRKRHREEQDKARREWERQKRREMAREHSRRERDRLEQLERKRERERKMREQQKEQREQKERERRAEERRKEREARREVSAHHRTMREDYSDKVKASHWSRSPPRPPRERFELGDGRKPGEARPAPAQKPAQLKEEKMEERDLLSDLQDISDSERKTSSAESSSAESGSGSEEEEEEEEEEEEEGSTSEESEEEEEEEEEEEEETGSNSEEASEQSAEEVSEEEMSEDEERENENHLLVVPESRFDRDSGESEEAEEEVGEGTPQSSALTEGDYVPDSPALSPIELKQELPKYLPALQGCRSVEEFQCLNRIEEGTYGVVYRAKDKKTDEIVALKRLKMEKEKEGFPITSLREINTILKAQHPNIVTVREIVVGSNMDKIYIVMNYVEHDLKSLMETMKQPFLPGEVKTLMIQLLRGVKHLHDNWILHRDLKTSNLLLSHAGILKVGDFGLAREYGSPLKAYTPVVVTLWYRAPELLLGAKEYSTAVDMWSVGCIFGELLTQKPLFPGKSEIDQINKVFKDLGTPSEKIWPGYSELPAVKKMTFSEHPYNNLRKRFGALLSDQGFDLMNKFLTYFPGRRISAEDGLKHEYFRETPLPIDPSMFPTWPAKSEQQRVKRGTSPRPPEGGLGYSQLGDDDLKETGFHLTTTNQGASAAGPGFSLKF

PAK7 (human) = PAK7 (human) (UniProt Q9P286)
TSSK1B (human) = TSSK1B (human) (UniProt Q9BXA7)
CSNK2A2 (human) = CSNK2A2 (human) (UniProt P19784)
EIF2AK1 (human) = EIF2AK1 (human) (UniProt Q9BQI3)
PIP5K1A (human) = PIP5K1A (human) (UniProt Q99755)
PTK2 (human) = PTK2 (human) (UniProt Q05397)

MAP3K12 (human), sequence (Q12852 whole entry, looked up): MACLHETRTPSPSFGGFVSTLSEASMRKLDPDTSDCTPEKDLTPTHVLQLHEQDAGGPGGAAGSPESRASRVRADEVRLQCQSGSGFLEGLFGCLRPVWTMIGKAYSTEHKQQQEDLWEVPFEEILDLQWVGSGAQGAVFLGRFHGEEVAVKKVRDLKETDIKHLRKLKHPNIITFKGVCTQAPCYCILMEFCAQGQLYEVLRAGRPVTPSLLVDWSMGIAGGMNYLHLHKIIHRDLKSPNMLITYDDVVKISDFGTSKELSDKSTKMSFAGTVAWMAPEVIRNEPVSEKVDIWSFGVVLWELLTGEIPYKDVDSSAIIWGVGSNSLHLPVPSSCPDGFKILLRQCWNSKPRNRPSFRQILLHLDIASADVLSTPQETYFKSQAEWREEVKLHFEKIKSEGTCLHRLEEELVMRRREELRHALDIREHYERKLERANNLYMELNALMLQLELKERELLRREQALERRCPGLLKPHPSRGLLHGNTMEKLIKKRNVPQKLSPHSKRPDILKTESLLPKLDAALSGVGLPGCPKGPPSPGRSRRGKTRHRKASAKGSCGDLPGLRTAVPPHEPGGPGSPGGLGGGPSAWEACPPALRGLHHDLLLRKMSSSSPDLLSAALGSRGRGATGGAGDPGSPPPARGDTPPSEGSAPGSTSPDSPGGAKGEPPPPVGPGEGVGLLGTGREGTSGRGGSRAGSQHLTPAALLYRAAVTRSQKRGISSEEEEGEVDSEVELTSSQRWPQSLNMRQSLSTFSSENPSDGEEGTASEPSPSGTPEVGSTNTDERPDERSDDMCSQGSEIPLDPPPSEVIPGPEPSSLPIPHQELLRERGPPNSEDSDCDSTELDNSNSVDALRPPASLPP
AXL (human), sequence (P30530 whole entry, looked up): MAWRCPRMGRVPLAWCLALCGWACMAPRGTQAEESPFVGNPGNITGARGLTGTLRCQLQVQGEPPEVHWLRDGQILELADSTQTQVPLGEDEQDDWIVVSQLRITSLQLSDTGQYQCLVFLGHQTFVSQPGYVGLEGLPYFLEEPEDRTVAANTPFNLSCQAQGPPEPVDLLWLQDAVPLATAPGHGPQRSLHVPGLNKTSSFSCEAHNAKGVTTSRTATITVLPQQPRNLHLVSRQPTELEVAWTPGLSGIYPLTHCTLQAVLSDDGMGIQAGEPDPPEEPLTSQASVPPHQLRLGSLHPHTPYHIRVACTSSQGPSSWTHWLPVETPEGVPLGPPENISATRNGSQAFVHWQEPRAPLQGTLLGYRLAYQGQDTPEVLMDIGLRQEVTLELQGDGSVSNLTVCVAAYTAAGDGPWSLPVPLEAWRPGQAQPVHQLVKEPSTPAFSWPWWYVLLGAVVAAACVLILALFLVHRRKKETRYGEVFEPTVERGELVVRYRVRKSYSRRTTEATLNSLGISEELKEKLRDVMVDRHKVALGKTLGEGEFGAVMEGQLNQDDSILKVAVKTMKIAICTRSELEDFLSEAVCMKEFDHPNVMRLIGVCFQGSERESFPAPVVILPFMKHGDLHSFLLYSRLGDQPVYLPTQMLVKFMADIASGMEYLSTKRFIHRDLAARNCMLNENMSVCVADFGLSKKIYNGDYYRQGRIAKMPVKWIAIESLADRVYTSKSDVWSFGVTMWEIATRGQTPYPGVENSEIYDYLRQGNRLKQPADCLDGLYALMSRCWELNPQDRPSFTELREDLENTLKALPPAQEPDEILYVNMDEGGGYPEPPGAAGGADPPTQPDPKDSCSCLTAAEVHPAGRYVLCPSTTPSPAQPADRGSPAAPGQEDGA
STK38L (human), sequence (Q9Y2H1 whole entry, looked up): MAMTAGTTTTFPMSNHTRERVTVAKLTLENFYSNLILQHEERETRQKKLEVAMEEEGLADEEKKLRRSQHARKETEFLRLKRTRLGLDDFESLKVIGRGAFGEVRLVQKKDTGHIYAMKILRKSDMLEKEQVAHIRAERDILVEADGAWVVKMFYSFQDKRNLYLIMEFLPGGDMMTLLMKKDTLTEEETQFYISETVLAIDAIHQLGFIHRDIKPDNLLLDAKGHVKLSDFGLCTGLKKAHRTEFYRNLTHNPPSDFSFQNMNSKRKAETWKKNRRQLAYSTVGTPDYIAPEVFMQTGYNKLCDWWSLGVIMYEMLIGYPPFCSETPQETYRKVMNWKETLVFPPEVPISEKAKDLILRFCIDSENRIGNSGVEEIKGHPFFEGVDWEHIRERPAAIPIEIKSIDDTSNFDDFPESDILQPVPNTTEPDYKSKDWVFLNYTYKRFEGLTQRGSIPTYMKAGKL

Compound: CN(C)C/C=C/C(=O)Nc1cccc(C(=O)Nc2ccc(Nc3nccc(/C(C#N)=C4\Nc5ccccc5S4)n3)cc2)c1
- kinase still bound, per cent of control (STK38L (human)): 100%
- kinase still bound, per cent of control [1]: 100%
- kinase still bound, per cent of control (TEC (human)): 100%
- kinase still bound, per cent of control (MAP3K12 (human)): 100%
- kinase still bound, per cent of control (AXL (human)): 100%
- kinase still bound, per cent of control (ADCK4 (human)): 48%
- kinase still bound, per cent of control (EPHA1 (human)): 89%
- kinase still bound, per cent of control (AAK1 (human)): 100%
- kinase still bound, per cent of control (MAP3K11 (human)): 100%
- kinase still bound, per cent of control [2]: 33%
- kinase still bound, per cent of control [3]: 57%
- kinase still bound, per cent of control (ULK2 (human)): 73%
- kinase still bound, per cent of control (FGFR4 (human)): 100%
- kinase still bound, per cent of control (MAP2K5 (human)): 100%
- kinase still bound, per cent of control (CSNK1G3 (human)): 37%
- kinase still bound, per cent of control (MAP3K10 (human)): 68%
- kinase still bound, per cent of control (STK17B (human)): 100%
- kinase still bound, per cent of control [4]: 85%
- kinase still bound, per cent of control (GRK7 (human)): 81%
- kinase still bound, per cent of control (HIPK1 (human)): 100%
- kinase still bound, per cent of control (RPS6KA6 KD2 (human)): 100%
- kinase still bound, per cent of control (MARK2 (human)): 100%
- kinase still bound, per cent of control (YSK4 (human)): 59%
- kinase still bound, per cent of control (MLTK (human)): 98%
- kinase still bound, per cent of control (BMPR1A (human)): 100%
- kinase still bound, per cent of control (LIMK2 (human)): 97%
- kinase still bound, per cent of control [5]: 86%
- kinase still bound, per cent of control (NIM1 (human)): 86%
- kinase still bound, per cent of control (NTRK3 (human)): 97%
- kinase still bound, per cent of control (FLT4 (human)): 78%
- kinase still bound, per cent of control (SRPK2 (human)): 100%
- kinase still bound, per cent of control (STK24 (human)): 100%
- kinase still bound, per cent of control (GSK3B (human)): 93%
- kinase still bound, per cent of control (IRAK1 (human)): 1.2%
- kinase still bound, per cent of control [6]: 95%
- kinase still bound, per cent of control (CDK11B (human)): 70%
- kinase still bound, per cent of control (PAK7 (human)): 69%
- kinase still bound, per cent of control (TSSK1B (human)): 100%
- kinase still bound, per cent of control (CSNK2A2 (human)): 8%
- kinase still bound, per cent of control (EIF2AK1 (human)): 100%
- kinase still bound, per cent of control (PIP5K1A (human)): 39%
- kinase still bound, per cent of control (PTK2 (human)): 100%
